Tests used:
Experiment in all cases: relative viability (nuclei count vs DMSO), 5 days (fraction); higher = more cells survive
[1] = compound: Cn1cc(-c2cnn3c(N)c(Br)c([C@@H]4CCCNC4)nc23)cn1 + Nc1ncn([C@H]2C[C@H](O)[C@@H](CO)O2)c(=O)n1 [Decitabine] (partner 2 µM)
Outline: (§1)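 Lung cancer cell lines were pin-tool dosed in 1536-well plates on the day after seeding, with either a lone drug or a fixed anchor-drug dose plus five library-drug doses (not always all listed) in √10 steps. Nuclei were counted on 4× images after 5 days. Relative viability is the ratio of treated-well to vehicle-well nuclei counts, with each value a median of duplicate plates.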

[2] = compound: Cn1cc(-c2cnn3c(N)c(Br)c([C@@H]4CCCNC4)nc23)cn1 + CC(C)C[C@H](NC(=O)[C@H](Cc1ccccc1)NC(=O)c1cnccn1)B(O)O [Bortezomib] (partner 0.002 µM)
Outline: as §1

[3] = compound: Cn1cc(-c2cnn3c(N)c(Br)c([C@@H]4CCCNC4)nc23)cn1 + Cc1cc(Nc2cc(N3CCN(C)CC3)nc(Sc3ccc(NC(=O)C4CC4)cc3)n2)n[nH]1 [Tozasertib] (partner 0.1 µM)
Outline: as §1

[4] = compound: Cn1cc(-c2cnn3c(N)c(Br)c([C@@H]4CCCNC4)nc23)cn1 + NC(=O)Nc1cc(-c2cccc(F)c2)sc1C(=O)N[C@H]1CCCNC1 [AZD7762] (partner 0.2 µM)
Outline: as §1

Cell Line | relative viability ([1]; first compound 0.05 µM) | relative viability ([1]; first compound 0.1581 µM) | relative viability ([1]; first compound 0.5 µM) | relative viability ([1]; first compound 1.581 µM) | relative viability ([1]; first compound 5 µM) | relative viability ([2]; first compound 0.05 µM) | relative viability ([2]; first compound 0.1581 µM) | relative viability ([2]; first compound 0.5 µM) | relative viability ([2]; first compound 1.581 µM) | relative viability ([2]; first compound 5 µM) | relative viability ([3]; first compound 0.05 µM) | relative viability ([3]; first compound 0.1581 µM) | relative viability ([3]; first compound 0.5 µM) | relative viability ([3]; first compound 1.581 µM) | relative viability ([3]; first compound 5 µM) | relative viability ([4]; first compound 0.05 µM) | relative viability ([4]; first compound 0.1581 µM) | relative viability ([4]; first compound 0.5 µM) | relative viability ([4]; first compound 1.581 µM) | relative viability ([4]; first compound 5 µM)
NCI-H661 | 0.551 | 0.578 | 0.529 | 0.462 | 0.373 | 0.805 | 0.781 | 0.698 | 0.731 | 0.587 | 0.344 | 0.343 | 0.371 | 0.372 | 0.379 |  |  |  |  | 
HCC-366 | 0.307 | 0.338 | 0.334 | 0.347 | 0.247 | 1.03 | 1.2 | 1.06 | 0.734 | 0.334 | 0.144 | 0.703 | 0.169 | 0.0808 | 0.0856 | 0.202 | 0.247 | 0.344 | 0.229 | 0.224
NCI-H1944 | 0.439 | 0.468 | 0.448 | 0.482 | 0.356 |  |  |  |  |  | 0.263 | 0.273 | 0.255 | 0.241 | 0.21 | 0.608 | 0.491 | 0.466 | 0.423 | 0.341
SW 1573 | 0.567 | 0.498 | 0.455 | 0.462 | 0.517 | 1.17 | 1.29 | 1.08 | 0.906 | 1.02 | 0.175 | 0.175 | 0.17 | 0.176 | 0.149 |  |  |  |  | 
COR-L 105 | 0.66 | 0.703 | 0.563 | 0.597 | 0.608 | 0.757 | 0.721 | 0.768 | 0.613 | 0.611 | 0.31 | 0.4 | 0.293 | 0.312 | 0.321 |  |  |  |  | 
EBC-1 |  |  |  |  |  | 0.609 | 0.599 | 0.445 | 0.461 | 0.394 |  |  |  |  |  |  |  |  |  | 
SK-LU-1 | 0.788 | 0.586 | 0.537 | 0.363 | 0.255 | 1.08 |  | 0.866 | 0.486 | 0.202 | 0.35 | 0.193 | 0.192 | 0.201 | 0.169 |  |  |  |  | 
NCI-H1648 | 0.383 | 0.483 | 0.487 | 0.467 | 0.504 |  |  |  |  |  | 0.395 | 0.436 |  | 0.377 | 0.381 | 0.607 | 0.635 | 0.717 | 0.649 | 0.637
SW 900 | 0.383 | 0.409 | 0.418 | 0.42 | 0.595 |  |  |  |  |  | 0.59 | 0.66 | 0.421 | 0.458 | 0.351 | 0.607 | 0.618 | 0.572 | 0.547 | 0.465
NCI-H520 | 0.528 | 0.543 | 0.57 | 0.527 | 0.306 | 0.702 | 0.609 | 0.385 | 0.471 | 0.344 | 0.471 | 0.397 | 0.41 | 0.444 | 0.342 |  |  |  |  | 
UMC-11 | 0.692 | 0.536 | 0.689 | 0.492 | 0.373 | 0.72 | 0.961 | 0.558 | 0.476 | 0.437 | 0.276 | 0.204 | 0.217 | 0.205 | 0.187 |  |  |  |  | 
NCI-H1792 | 0.542 | 0.627 | 0.587 |  | 0.516 | 0.801 | 1.1 | 0.703 | 0.551 | 0.371 |  |  |  |  |  | 0.613 | 1.3 | 0.729 |  | 0.412
NCI-H1793 | 0.532 | 0.543 | 0.542 | 0.498 | 0.178 |  |  |  |  |  | 0.39 | 0.806 | 0.282 | 0.341 | 0.2 | 0.598 | 0.466 | 0.422 | 0.397 | 0.183
NCI-H1563 |  |  |  |  |  | 0.887 | 0.74 | 0.742 | 0.805 | 0.706 |  |  |  |  |  |  |  |  |  | 
NCI-H1395 | 0.761 | 0.554 | 0.63 | 0.501 | 0.378 |  |  |  |  |  | 0.804 | 0.68 | 0.789 | 0.543 | 0.436 | 0.397 | 0.393 | 0.372 | 0.372 | 0.351
NCI-H1299 |  |  |  |  |  | 0.942 | 1.04 | 0.994 | 1.03 | 0.985 |  |  |  |  |  |  |  |  |  | 
NCI-H2228 |  |  |  |  |  | 1.1 | 1.1 | 0.943 | 0.705 | 0.521 | 0.249 | 0.221 | 0.205 | 0.211 | 0.124 |  |  |  |  | 
NCI-H2170 | 0.503 | 0.491 | 0.459 | 0.473 | 0.516 |  |  |  |  |  | 0.78 | 0.789 | 0.644 | 0.894 | 0.855 | 0.923 | 0.919 | 0.753 | 0.822 | 0.973
NCI-H522 | 0.675 | 0.619 | 0.664 | 0.669 | 0.642 |  |  |  |  |  | 0.575 | 0.638 | 0.6 | 0.577 | 0.543 | 0.616 | 0.812 | 0.882 | 0.763 | 0.748
A549 | 0.323 | 0.281 | 0.279 | 0.278 | 0.116 |  |  |  |  |  |  |  |  |  |  |  |  |  |  | 
NCI-H358 | 0.206 | 0.235 | 0.232 | 0.217 | 0.185 |  |  |  |  |  | 0.0994 | 0.103 | 0.0971 | 0.0967 | 0.117 | 0.417 |  | 0.447 | 0.38 | 0.36
CAL-12T |  |  |  |  |  | 0.728 | 0.899 | 0.775 | 0.718 | 0.315 | 0.38 | 0.326 | 0.255 | 0.174 | 0.113 | 0.541 | 0.531 | 0.538 | 0.494 | 0.239
COR-L23 | 0.407 | 0.489 | 0.481 | 0.354 | 0.248 | 1.08 | 1.23 | 0.913 | 0.646 | 0.46 | 0.201 | 0.158 | 0.211 | 0.163 | 0.102 |  |  |  |  | 
IA-LM |  |  |  |  |  | 0.823 | 0.886 | 0.678 | 0.532 | 0.32 |  |  |  |  |  |  |  |  |  | 
NCI-H1650 | 0.445 | 0.478 | 0.373 | 0.445 | 0.3 | 0.185 | 0.171 | 0.215 | 0.189 | 0.196 |  | 0.408 | 0.33 | 0.3 | 0.261 |  |  |  |  | 
Calu-6 |  |  |  |  |  | 1.17 | 0.733 | 0.685 | 0.363 | 0.188 |  |  |  |  |  |  |  |  |  | 

Source: the supplement of paper PMC10307832
